Test results as given in US20260028365A1 (BIOGEN MA INC., priority 2022, published 2026).
Where a name gives a salt, the structure may show the parent alone. Read-outs that look alike come from different tables or passages of the source.

Assays:
JH2 domain of human Tyk2 = JH2 domain of human Tyk2 (Homo sapiens (Human), UniProt P29597); test: JH2 Biochemical Assay (TR-FRET probe displacement); assay type: binding
Tyk2 = Tyk2 (Homo sapiens (Human), UniProt P29597); test: pSTAT4 Cell Assay (MSD, NK92 cells); assay type: cell-based
Chain of Tyk2 (P29597 whole entry): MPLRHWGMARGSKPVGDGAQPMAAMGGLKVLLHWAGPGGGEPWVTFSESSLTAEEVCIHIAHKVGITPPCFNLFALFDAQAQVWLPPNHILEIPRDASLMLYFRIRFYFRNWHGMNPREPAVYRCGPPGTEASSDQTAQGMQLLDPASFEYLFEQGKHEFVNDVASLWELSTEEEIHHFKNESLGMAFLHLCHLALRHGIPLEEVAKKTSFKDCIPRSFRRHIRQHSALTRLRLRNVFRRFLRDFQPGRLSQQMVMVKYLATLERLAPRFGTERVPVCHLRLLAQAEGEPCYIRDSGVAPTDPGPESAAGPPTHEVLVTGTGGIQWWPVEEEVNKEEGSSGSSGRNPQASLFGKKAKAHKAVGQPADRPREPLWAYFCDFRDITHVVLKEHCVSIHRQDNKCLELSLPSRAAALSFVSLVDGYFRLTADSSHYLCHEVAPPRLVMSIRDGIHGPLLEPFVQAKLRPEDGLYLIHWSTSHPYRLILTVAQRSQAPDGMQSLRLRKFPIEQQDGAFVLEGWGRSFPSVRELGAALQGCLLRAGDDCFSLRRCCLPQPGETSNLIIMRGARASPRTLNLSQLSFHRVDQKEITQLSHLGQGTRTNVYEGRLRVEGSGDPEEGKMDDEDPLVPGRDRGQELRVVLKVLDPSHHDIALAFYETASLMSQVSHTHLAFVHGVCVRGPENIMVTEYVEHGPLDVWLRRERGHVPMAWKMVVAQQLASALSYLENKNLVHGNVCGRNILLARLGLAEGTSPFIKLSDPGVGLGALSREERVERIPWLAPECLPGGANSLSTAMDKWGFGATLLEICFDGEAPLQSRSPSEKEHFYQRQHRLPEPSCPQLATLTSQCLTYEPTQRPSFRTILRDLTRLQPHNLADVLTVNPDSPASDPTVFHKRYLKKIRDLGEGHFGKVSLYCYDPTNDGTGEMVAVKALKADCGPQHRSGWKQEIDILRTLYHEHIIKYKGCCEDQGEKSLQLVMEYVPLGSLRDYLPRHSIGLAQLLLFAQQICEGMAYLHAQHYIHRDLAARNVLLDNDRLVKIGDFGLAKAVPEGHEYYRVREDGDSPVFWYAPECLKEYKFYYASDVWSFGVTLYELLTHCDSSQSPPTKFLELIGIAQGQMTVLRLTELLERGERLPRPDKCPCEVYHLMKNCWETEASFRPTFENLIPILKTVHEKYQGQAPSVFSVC

JAK1 = JAK1 (Homo sapiens (Human), UniProt P23458); test: pSTAT3 Cell Assay (MSD, TF1 cells); assay type: cell-based
Chain of JAK1 (P23458 whole entry): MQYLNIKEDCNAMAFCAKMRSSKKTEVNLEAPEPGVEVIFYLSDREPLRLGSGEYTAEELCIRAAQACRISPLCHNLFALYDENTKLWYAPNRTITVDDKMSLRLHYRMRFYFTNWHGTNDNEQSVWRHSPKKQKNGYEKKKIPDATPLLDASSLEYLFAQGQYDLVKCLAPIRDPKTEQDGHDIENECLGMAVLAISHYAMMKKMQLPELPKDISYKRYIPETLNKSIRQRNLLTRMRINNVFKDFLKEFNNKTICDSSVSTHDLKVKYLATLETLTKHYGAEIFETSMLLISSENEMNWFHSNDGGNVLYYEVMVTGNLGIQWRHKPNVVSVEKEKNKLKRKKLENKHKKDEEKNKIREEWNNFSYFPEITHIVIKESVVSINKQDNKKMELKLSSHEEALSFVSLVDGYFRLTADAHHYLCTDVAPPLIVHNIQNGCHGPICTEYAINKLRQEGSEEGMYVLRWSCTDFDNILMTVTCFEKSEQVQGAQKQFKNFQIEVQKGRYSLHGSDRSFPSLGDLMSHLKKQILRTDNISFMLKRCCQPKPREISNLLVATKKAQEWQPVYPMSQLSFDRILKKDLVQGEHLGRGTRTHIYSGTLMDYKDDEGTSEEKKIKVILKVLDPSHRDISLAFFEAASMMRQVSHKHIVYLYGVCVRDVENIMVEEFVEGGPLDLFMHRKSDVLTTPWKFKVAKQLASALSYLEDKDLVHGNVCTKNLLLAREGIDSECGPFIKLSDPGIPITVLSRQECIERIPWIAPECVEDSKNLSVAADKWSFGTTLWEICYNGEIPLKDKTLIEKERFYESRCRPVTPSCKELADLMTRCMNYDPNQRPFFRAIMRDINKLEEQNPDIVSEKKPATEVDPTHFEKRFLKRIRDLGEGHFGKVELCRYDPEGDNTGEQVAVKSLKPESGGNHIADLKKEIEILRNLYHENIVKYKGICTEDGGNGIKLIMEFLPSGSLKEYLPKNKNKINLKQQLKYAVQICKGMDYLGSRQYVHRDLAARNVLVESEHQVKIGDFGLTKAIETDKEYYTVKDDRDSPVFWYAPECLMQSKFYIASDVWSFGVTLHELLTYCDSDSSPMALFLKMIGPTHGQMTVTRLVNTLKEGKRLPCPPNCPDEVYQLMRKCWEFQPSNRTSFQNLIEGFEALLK
Procedure: The inhibitory potency of compounds of the disclosure against the JAK1 kinase activity on STAT3 was evaluated using an MSD-platform plate-based assay format. TF1 cells natively expressing STAT3 and JAK1 were serum-starved to reduce background phosphorylation levels, then cells were treated with compounds of the disclosure for 1 hour with a 10-point four-fold dilution series starting at 10 μM. Cells were then stimulated with 30 ng/mL interleukin 6 (IL-6) for 15 minutes. Cells were lysed and pSTAT3 levels were quantitated using an MSD plate-based assay with anti-STAT3 antibodies. The data were normalized and the percent activity versus log concentration of compound was fitted with a 4-parameter logistic model to generate IC50 curves.

JAK2 = JAK2 (Homo sapiens (Human), UniProt O60674); test: pSTAT5 Cell Assay (MSD, TF1 cells); assay type: cell-based; conditions: IL-3 stimulated, MSD
Chain of JAK2 (O60674 whole entry): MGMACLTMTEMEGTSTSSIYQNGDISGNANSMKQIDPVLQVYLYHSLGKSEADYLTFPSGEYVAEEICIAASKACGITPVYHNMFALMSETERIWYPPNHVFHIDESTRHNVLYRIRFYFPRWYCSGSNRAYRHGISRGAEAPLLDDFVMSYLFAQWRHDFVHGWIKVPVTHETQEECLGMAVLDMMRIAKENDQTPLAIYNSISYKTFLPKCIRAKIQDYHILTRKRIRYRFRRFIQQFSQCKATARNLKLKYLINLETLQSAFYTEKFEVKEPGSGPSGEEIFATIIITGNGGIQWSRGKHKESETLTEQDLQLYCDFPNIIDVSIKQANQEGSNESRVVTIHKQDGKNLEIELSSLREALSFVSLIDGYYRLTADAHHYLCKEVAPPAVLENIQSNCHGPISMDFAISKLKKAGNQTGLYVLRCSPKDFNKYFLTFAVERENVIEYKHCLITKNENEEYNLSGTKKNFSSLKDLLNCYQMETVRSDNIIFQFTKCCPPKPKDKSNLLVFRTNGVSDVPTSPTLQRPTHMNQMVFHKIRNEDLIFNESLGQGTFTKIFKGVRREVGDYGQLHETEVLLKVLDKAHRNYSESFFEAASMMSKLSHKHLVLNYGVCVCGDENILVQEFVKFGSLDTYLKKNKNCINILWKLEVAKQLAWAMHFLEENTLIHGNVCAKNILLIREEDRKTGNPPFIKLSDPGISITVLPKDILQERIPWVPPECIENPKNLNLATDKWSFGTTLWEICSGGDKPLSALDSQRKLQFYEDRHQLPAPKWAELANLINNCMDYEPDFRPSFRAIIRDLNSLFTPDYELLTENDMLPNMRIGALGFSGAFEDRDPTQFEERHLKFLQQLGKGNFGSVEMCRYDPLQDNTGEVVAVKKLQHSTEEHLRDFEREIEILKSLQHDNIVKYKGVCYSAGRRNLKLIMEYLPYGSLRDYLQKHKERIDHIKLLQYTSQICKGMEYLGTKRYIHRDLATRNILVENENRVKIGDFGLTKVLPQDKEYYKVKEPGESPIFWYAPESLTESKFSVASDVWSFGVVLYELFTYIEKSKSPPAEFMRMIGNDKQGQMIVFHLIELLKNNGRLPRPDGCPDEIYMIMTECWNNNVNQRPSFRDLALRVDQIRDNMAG
Procedure: Compounds of the disclosure were assessed for their ability to inhibit the JAK2 kinase activity on STAT5 utilizing an MSD-platform plate-based assay format. TF1 cells natively expressing STAT5 and JAK2 were serum-starved to reduce background phosphorylation levels, then cells were treated with compounds of disclosure for 1 hour with a 10-point four-fold dilution series starting at 10 μM. Cells were then stimulated with 30 ng/mL IL-3 for 15 minutes. Cells were then lysed and pSTAT5 levels were quantitated using an MSD plate-based assay with anti-STAT5 antibodies. The data were normalized and the percent activity versus log concentration of compound was fitted with a 4-parameter logistic model to generate a curve and an IC50 value.

[1] = TR-FRET probe displacement, JH2 domain of human Tyk2
[2] = JH2 domain of human Tyk2, TR-FRET probe displacement
[3] = TR-FRET probe displacement, JH2 domain

Chain of JH2 domain of human Tyk2 (P29597 575-876): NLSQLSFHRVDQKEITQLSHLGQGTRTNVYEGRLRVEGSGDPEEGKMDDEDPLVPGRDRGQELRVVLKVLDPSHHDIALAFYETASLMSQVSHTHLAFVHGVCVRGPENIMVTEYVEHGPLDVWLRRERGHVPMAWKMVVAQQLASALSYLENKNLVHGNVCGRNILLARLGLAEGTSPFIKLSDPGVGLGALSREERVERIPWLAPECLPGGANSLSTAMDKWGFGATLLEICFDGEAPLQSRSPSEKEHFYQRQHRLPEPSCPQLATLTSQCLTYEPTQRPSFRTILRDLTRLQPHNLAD

| SMILES | IC50 (JH2 domain of human Tyk2; [3]) [nM] | IC50 (Tyk2) [nM] | IC50 (JAK1; IL-6 stimulated) [nM] | other results |
| --- | --- | --- | --- | --- |
| COc1ccc(-c2cnc(NC(C)=O)cc2Nc2ccnc(C(C)(F)F)n2)nn1 [Example 214, N-(4-((2-(1,1-difluoroethyl)pyrimidin-4-yl)amino)-5-(6-methoxypyridazin-3-yl)pyridin-2-yl)acetamide trifluoroacetate] | – | – | – | IC50 (JH2 domain of human Tyk2; [1]): ≤ 10 nM; IC50 (Tyk2; MSD): ≤ 10 nM; IC50 (JAK1; IL-6 stimulation, MSD): ≥ 1000 nM |
| CCc1cc(Nc2cc(NC(C)=O)ncc2-c2ccc(CN(C)C)cn2)nc(C(C)(F)F)n1 [Example 266, N-(4′-((2-(1,1-difluoroethyl)-6-ethylpyrimidin-4-yl)amino)-5-((dimethylamino)methyl)-[2,3′-bipyridin]-6′-yl)acetamide] | – | – | – | IC50 (JH2 domain of human Tyk2; [1]): ≤ 10 nM; IC50 (Tyk2; MSD): ≤ 10 nM; IC50 (JAK1; IL-6 stimulation, MSD): 100 to 1000 nM |
| COCc1ccc(-c2cnc(NC(C)=O)cc2Nc2cc(C)nc(C34CC(CO3)C4)n2)nc1 [Example 280, N-(4′-((2-(2-oxabicyclo[2.1.1]hexan-1-yl)-6-methylpyrimidin-4-yl)amino)-5-(methoxymethyl)-[2,3′-bipyridin]-6′-yl)acetamide] | – | – | – | IC50 (JH2 domain of human Tyk2; [1]): ≤ 10 nM; IC50 (Tyk2; MSD): ≤ 10 nM; IC50 (JAK1; IL-6 stimulation, MSD): ≥ 1000 nM |
| COCn1ncc(-c2cnc(NC(C)=O)cc2Nc2cc(C)nc(C(C)(F)F)n2)n1 [Example 608, N-(4-((2-(1,1-difluoroethyl)-6-methylpyrimidin-4-yl)amino)-5-(2-(methoxymethyl)-2H-1,2,3-triazol-4-yl)pyridin-2-yl)acetamide] | – | – | – | IC50 (JH2 domain of human Tyk2; [2]): ≤ 10 nM; IC50 (Tyk2; MSD): ≤ 10 nM; IC50 (JAK1; IL-6 stimulated, MSD): ≥ 1000 nM |
| COCCn1ncc(-c2cnc(NC(C)=O)cc2Nc2ccnc(C(C)(F)F)n2)n1 [Example 710, N-(4-((2-(1,1-difluoroethyl)pyrimidin-4-yl)amino)-5-(2-(2-methoxyethyl)-2H-1,2,3-triazol-4-yl)pyridin-2-yl)acetamide] | – | – | – | IC50 (JH2 domain of human Tyk2; [2]): ≤ 10 nM; IC50 (Tyk2; MSD): ≤ 10 nM; IC50 (JAK2): ≥ 1000 nM |
| CC(=O)Nc1cc(Nc2cc(C)nc(C(C)(F)F)n2)c(-c2nncs2)cn1 [Example 744, N-(4-((2-(1,1-difluoroethyl)-6-methylpyrimidin-4-yl)amino)-5-(1,3,4-thiadiazol-2-yl)pyridin-2-yl)acetamide] | – | – | – | IC50 (JH2 domain of human Tyk2; [2]): ≤ 10 nM; IC50 (Tyk2; MSD): ≤ 10 nM; IC50 (JAK1; IL-6 stimulated, MSD): ≥ 1000 nM |
| CC(=O)Nc1cc(Nc2cc(C)nc(C34COC(C3)C4)n2)c(-c2cc(C)ncn2)cn1 [Example 746, N-(4-((2-(2-oxabicyclo[2.1.1]hexan-4-yl)-6-methylpyrimidin-4-yl)amino)-5-(6-methylpyrimidin-4-yl)pyridin-2-yl)acetamide] | ≤ 10 | 100 to 1000 | ≥ 1000 | – |
| CC(=O)Nc1cc(Nc2cc(C)nc(C34COC(C3)C4)n2)c(-c2ccncn2)cn1 [Example 748, N-(4-((2-(2-oxabicyclo[2.1.1]hexan-4-yl)-6-methylpyrimidin-4-yl)amino)-5-(pyrimidin-4-yl)pyridin-2-yl)acetamide] | ≤ 10 | ≤ 10 | ≥ 1000 | – |
| CC(=O)Nc1cc(Nc2cc(C)nc(C34COC(C3)C4)n2)c(-c2ccc(C#N)cn2)cn1 [Example 751, N-(4′-((2-(2-oxabicyclo[2.1.1]hexan-4-yl)-6-methylpyrimidin-4-yl)amino)-5-cyanO[2,3′-bipyridin]-6′-yl)acetamide] | ≤ 10 | 10 to 100 | ≥ 1000 | – |
| COCCc1nnc(-c2cnc(NC(C)=O)cc2Nc2cc(C)nc(C(C)(F)F)n2)s1 [Example 754, N-(4-((2-(1,1-difluoroethyl)-6-methylpyrimidin-4-yl)amino)-5-(5-(2-methoxyethyl)-1,3,4-thiadiazol-2-yl)pyridin-2-yl)acetamide] | ≤ 10 | ≤ 10 | ≥ 1000 | – |
| COCCc1cnc(-c2cnc(NC(C)=O)cc2Nc2cc(C)nc(C(C)(F)F)n2)s1 [Example 756, N-(4-((2-(1,1-difluoroethyl)-6-methylpyrimidin-4-yl)amino)-5-(5-(2-methoxyethyl)thiazol-2-yl)pyridin-2-yl)acetamide] | ≤ 10 | 100 to 1000 | ≥ 1000 | – |
| CC(=O)Nc1cc(Nc2cc(C)nc(C(C)(F)F)n2)c(-c2cn3c(n2)COCC3)cn1 [Example 768, N-(4-((2-(1,1-difluoroethyl)-6-methylpyrimidin-4-yl)amino)-5-(5,6-dihydrO8H-imidazo[2,1-c][1,4]oxazin-2-yl)pyridin-2-yl)acetamide] | ≤ 10 | ≤ 10 | ≥ 1000 | – |
| CC(=O)Nc1cc(Nc2ccnc(C(C)(F)F)n2)c(-c2ccnc(C(F)F)n2)cn1 [Example 775, N-(4-((2-(1,1-difluoroethyl)pyrimidin-4-yl)amino)-5-(2-(difluoromethyl)pyrimidin-4-yl)pyridin-2-yl)acetamide] | ≤ 10 | ≤ 10 | ≥ 1000 | – |
| COCCOc1nccc(-c2cnc(NC(C)=O)cc2Nc2cc(C)nc(C(C)(F)F)n2)n1 [Example 776, N-(4-((2-(1,1-difluoroethyl)-6-methylpyrimidin-4-yl)amino)-5-(2-(2-methoxyethoxy)pyrimidin-4-yl)pyridin-2-yl)acetamide] | ≤ 10 | ≤ 10 | ≥ 1000 | – |
| CC(=O)Nc1cc(Nc2ccnc(C(C)(F)F)n2)c(-c2cn3c(n2)CCCC3)cn1 [Example 780, N-(4-((2-(1,1-difluoroethyl)pyrimidin-4-yl)amino)-5-(5,6,7,8-tetrahydroimidazo[1,2-a]pyridin-2-yl)pyridin-2-yl)acetamide] | ≤ 10 | ≤ 10 | ≥ 1000 | – |
| CC(=O)Nc1cc(Nc2ccnc(C(C)(F)F)n2)c(-c2nc3c(s2)CN(C)CC3)cn1 [Example 798, N-(4-((2-(1,1-difluoroethyl)pyrimidin-4-yl)amino)-5-(5-methyl-4,5,6,7-tetrahydrothiazolo[5,4-c]pyridin-2-yl)pyridin-2-yl)acetamide] | ≤ 10 | ≤ 10 | ≥ 1000 | – |
| CC(=O)Nc1cc(Nc2cc(C)nc(C(C)(C)F)n2)c(-c2ccncn2)cn1 [Example 800, N-(4-((2-(2-fluoropropan-2-yl)-6-methylpyrimidin-4-yl)amino)-5-(pyrimidin-4-yl)pyridin-2-yl)acetamide] | ≤ 10 | ≤ 10 | ≥ 1000 | – |
| CCc1cc(Nc2cc(NC(C)=O)ncc2-c2ccc(OC(F)F)cn2)nc(C(C)(F)F)n1 [Example 849, N-(4′-((2-(1,1-difluoroethyl)-6-ethylpyrimidin-4-yl)amino)-5-(difluoromethoxy)-[2,3′-bipyridin]-6′-yl)acetamide] | ≤ 10 | ≤ 10 | ≥ 1000 | – |
| CNc1ccc(-c2cnc(NC(C)=O)cc2Nc2ccnc(C(C)(F)F)n2)nc1 [Example 857, N-(4′-((2-(1,1-difluoroethyl)pyrimidin-4-yl)amino)-5-(methylamino)-[2,3′-bipyridin]-6′-yl)acetamide] | ≤ 10 | ≤ 10 | ≥ 1000 | – |
| CCc1cc(Nc2cc(NC(C)=O)ncc2-c2ccc(NC)cn2)nc(C(C)(F)F)n1 [Example 859, N-(4′-((2-(1,1-difluoroethyl)-6-ethylpyrimidin-4-yl)amino)-5-(methylamino)-[2,3′-bipyridin]-6′-yl)acetamide] | ≤ 10 | ≤ 10 | ≥ 1000 | – |
| CCc1cc(Nc2cc(NC(C)=O)ncc2-c2cnc(N3CCOCC3)cn2)nc(C(C)(F)F)n1 [Example 861, N-(4-((2-(1,1-difluoroethyl)-6-ethylpyrimidin-4-yl)amino)-5-(5-morpholinopyrazin-2-yl)pyridin-2-yl)acetamide] | ≤ 10 | 10 to 100 | ≥ 1000 | – |
| CCc1cc(Nc2cc(NC(C)=O)ncc2-c2cc(C(F)F)ncn2)nc(C(C)(F)F)n1 [Example 891, N-(4-((2-(1,1-difluoroethyl)-6-ethylpyrimidin-4-yl)amino)-5-(6-(difluoromethyl)pyrimidin-4-yl)pyridin-2-yl)acetamide] | ≤ 10 | ≤ 10 | ≥ 1000 | – |
| CC(=O)Nc1cc(Nc2ccnc(C(C)(F)F)n2)c(-c2ccc(CN3CCOC[C@@H]3C)cn2)cn1 [Example 892, (S)-N-(4′-((2-(1,1-difluoroethyl)pyrimidin-4-yl)amino)-5-((3-methylmorpholino)methyl)-[2,3′-bipyridin]-6′-yl)acetamide] | ≤ 10 | ≤ 10 | ≥ 1000 | – |
| CCc1cc(Nc2cc(NC(C)=O)ncc2-c2cnn(C)n2)nc(C(C)(F)F)n1 [Example 918, N-(4-((2-(1,1-difluoroethyl)-6-ethylpyrimidin-4-yl)amino)-5-(2-methyl-2H-1,2,3-triazol-4-yl)pyridin-2-yl)acetamide] | ≤ 10 | ≤ 10 | ≥ 1000 | – |
| CC(=O)Nc1cc(Nc2cc(C)nc(C(C)(F)F)n2)c(-c2cnc(C(F)F)cn2)cn1 [Example 921, N-(4-((2-(1,1-difluoroethyl)-6-methylpyrimidin-4-yl)amino)-5-(5-(difluoromethyl)pyrazin-2-yl)pyridin-2-yl)acetamide] | ≤ 10 | 10 to 100 | ≥ 1000 | – |
